Measured values as given in ChEMBL document CHEMBL4118170, “Alkylsulfanyl analogs as potent α2δ ligands” (Bioorg Med Chem Lett, 2018).

How the values were obtained:
[1] = target: Voltage-dependent calcium channel subunit alpha-2/delta-1 (Homo sapiens) (UniProt P54289); test: Displacement of [3H]gabapentin from human voltage-gated Ca2+ channel alpha2delta1 subunit expressed in HEK293A cell membranes after 30 mins by liquid scintillation counting method
Mus musculus [2] = test: Analgesic activity in db/db mouse mechanical hyperalgesia model assessed as reversal of mechanical hyperalgesia at 100 mg/kg, po pretreated for 2 hrs by Von Frey test relative to control; assay type: functional
Mus musculus [3] = test: Effect on motor coordination in mouse at 30 mg/kg, po measured over 120 secs at 2 hrs post drug administration by rota rod test; assay type: ADME, organism-based; details: in vivo
Rattus norvegicus [4] = test: Analgesic activity in STZ-induced diabetic rat model assessed as pain threshold AUC (0 to 8 hrs) at 10 mg/kg, po by Von Frey test; assay type: functional, organism-based; parameters: dose 10 mg/kg, time < 8 hr
[5] = Cmax in mouse at 10 mg/kg, po or 5 mg/kg, iv; assay type: ADME, organism-based; details: in vivo
Mus musculus [6] = test: AUC in mouse at 10 mg/kg, po or 5 mg/kg, iv; assay type: ADME, organism-based; details: in vivo
Rattus norvegicus [7] = test: Analgesic activity in STZ-induced diabetic rat model assessed as pain threshold AUC (0 to 8 hrs) at 30 mg/kg, po by Von Frey test; assay type: functional, organism-based; parameters: time < 8 hr, dose 30 mg/kg
[8] = Clearance in mouse at 10 mg/kg, po or 5 mg/kg, iv; assay type: ADME, organism-based; details: in vivo
[9] = Oral bioavailability in mouse at 10 mg/kg; assay type: ADME, organism-based; details: in vivo
[10] = Half life in mouse at 10 mg/kg, po or 5 mg/kg, iv; assay type: ADME, organism-based; details: in vivo
Mus musculus [11] = test: Effect on motor coordination in mouse at 100 mg/kg, po measured over 120 secs at 2 hrs post drug administration by rota rod test; assay type: ADME, organism-based; details: in vivo
Rattus norvegicus [12] = test: Analgesic activity in STZ-induced diabetic rat model assessed as pain threshold AUC (0 to 8 hrs) at 50 mg/kg, po by Von Frey test; assay type: functional, organism-based; parameters: time < 8 hr, dose 50 mg/kg

Voltage-dependent calcium channel subunit alpha-2/delta-1 (Homo sapiens), sequence (P54289 25-956 limits assumed): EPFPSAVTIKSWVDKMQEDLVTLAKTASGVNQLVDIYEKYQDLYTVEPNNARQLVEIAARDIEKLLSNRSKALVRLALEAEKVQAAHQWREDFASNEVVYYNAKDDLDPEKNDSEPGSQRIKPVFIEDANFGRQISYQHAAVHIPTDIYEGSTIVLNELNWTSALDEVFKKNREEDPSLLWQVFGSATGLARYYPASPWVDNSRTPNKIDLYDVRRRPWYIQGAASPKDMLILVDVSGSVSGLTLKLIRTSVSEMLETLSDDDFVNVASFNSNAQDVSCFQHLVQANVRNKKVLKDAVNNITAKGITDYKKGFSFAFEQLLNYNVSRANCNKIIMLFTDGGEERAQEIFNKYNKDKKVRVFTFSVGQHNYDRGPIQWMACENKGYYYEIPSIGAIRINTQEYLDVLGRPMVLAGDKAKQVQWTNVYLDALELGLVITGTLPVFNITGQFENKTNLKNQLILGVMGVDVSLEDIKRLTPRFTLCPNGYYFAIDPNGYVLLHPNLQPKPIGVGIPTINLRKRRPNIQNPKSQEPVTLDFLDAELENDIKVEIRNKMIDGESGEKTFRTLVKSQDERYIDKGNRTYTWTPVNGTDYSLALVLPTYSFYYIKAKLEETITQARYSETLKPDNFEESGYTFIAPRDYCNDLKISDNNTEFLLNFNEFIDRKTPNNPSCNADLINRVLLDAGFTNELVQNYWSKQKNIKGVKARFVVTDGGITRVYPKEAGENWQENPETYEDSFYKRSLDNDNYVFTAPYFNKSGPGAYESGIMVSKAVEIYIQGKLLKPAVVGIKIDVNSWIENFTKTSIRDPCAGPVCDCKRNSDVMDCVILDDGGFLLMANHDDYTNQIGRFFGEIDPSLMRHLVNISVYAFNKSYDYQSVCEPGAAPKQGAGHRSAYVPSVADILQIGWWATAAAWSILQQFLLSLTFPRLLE
Voltage-dependent calcium channel subunit alpha-2/delta-1 (Homo sapiens), sequence (P54289 957-1103 limits assumed): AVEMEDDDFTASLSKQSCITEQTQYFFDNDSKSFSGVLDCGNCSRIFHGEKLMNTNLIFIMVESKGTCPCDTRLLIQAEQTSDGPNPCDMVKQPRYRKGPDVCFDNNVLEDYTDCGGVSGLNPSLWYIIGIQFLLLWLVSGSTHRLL

Structure (SMILES)	displacement potency (concentration) [1] [nM]	Activity (Mus musculus [2]) [%]	Cmax [5] [ng/mL]	AUC (Mus musculus [6]) [ng·h/mL]	clearance [8] [mL/min/kg]	bioavailability [9] [%]	half-life [10] [h]	other results
CCSCC(CN)CC(=O)O (racemic)	1900							
COCCC(CN)CC(=O)O (racemic)	240	17						
CC(C)C[C@H](CN)CC(=O)O [PREGABALIN]	39	98	1340	18900	7.77	88	2.54	Activity (Mus musculus [3]): Toxic; AUC (Rattus norvegicus [4]): 5.8 to 17 g·h; AUC (Rattus norvegicus [7]): 18 to 27 g·h; Activity (Mus musculus [11]): Toxic
CSC(C)CC(CN)CC(=O)O (mixture of isomers)	170	64						
CSCCC(CN)CC(=O)O (racemic)	480	12						
CS[C@H](C)C[C@@H](CN)CC(=O)O	720	3	3590	5800	31.7	100	4.42	
CSC(C)C(CN)CC(=O)O (centres undefined)	240	9						
CC(C)SCC(CN)CC(=O)O (centres undefined)	19000							
CCSC(C)CC(CN)CC(=O)O (centres undefined)	200	43						
CSCC(C)C(CN)CC(=O)O (centres undefined)	150	2						
COCC(CN)CC(=O)O (racemic)	3200							
CSCC(CN)CC(=O)O (racemic)	1000	9						
COC(C)CC(CN)CC(=O)O (centres undefined)	410	4						
CS[C@@H](C)C[C@H](CN)CC(=O)O	48	80	5190	12500	17.6	100	2.4	Activity (Mus musculus [3]): Non-Toxic; AUC (Rattus norvegicus [7]): 10 g·h; Activity (Mus musculus [11]): Toxic; AUC (Rattus norvegicus [12]): 18 g·h
CCOC(C)CC(CN)CC(=O)O (centres undefined)	970	22						
CS[C@H](C)C[C@H](CN)CC(=O)O	620	4	6220	9980	17.5	100	4.52	
CCS[C@H](C)C[C@H](CN)CC(=O)O	290	3						
CCS[C@@H](C)C[C@H](CN)CC(=O)O	20	90	5610	8140	5.78	28	2.09	Activity (Mus musculus [3]): Toxic; AUC (Rattus norvegicus [4]): 6.3 g·h; AUC (Rattus norvegicus [7]): 19 g·h; Activity (Mus musculus [11]): Toxic
CS[C@@H](C)C[C@@H](CN)CC(=O)O	290	0	1610	3020	23.8	45	5.8	
COCC(C)C(CN)CC(=O)O (centres undefined)	160	10						
